Assay results from patent US20250332183A1, “COMPOSITIONS AND METHODS FOR THE STIMULATION OF INTERMEDIATE MACROPHAGES AND TREATMENTS THEREWITH” (priority 2024, published 2025).
Entries after “also recorded” stand apart in the source; their conditions may differ.

What was measured:
[1] = system: preterm lamb model of BPD; assay: Respiratory gas exchange / oxygenation and ventilation indices in ventilated preterm lambs; assay type: in vivo
Method: For dose-optimization, preterm (PT) lambs were delivered at ˜128d (d; saccular stage of lung development; ˜85% gestation) after maternal antenatal steroids exposure. […] After delivery and surfactant administration, PT lambs were maintained on invasive mechanical ventilation (IMV) for 7d followed by 3d noninvasive respiratory support. For the early-stage study, outcomes were determined for PT lambs over DOL1-10. For the late-stage study, outcomes were determined for former preterm (FPT) lambs (vehicle, AVR-48 treated) that were weaned from respiratory support after 10d and were maintained in the lamb intensive care unit for a further 80d. Outcomes included functional, structural, molecular, and neurobehavioral assessments. Term reference lambs that were never ventilated were used as developmental references for the FPT lambs.
Arterial blood gases were obtained starting at 15 min of postnatal life and taken every 15 min for the first 90 min of postnatal life. FiO2 was decreased to attain a target oxygenation of O2 saturation 88-94% by pulse oximetry (Model SurgiVet V9200IBP/Temp, Smith Medical ASD, Inc., St. Paul, MN). PIP was adjusted to attain a target PaCO2 between 45 and 60 mmHg. The resultant pH range was between 7.25-7.35.
Study design. A randomized, blinded, placebo-controlled study design was used for both endpoints. For each endpoint study, one group of PT lambs was treated with vehicle (saline, intravenously, iv, over about 10 min) for 7d and thus served as control. Another group of PT lambs was treated iv with AVR-48 for 7d. Either treatment was started at 6 h of postnatal life to allow the PT lambs to stabilize after Cesarean-section delivery and resuscitation physiologically and to permit initiation of ventilator-induced lung injury. The inventors relied on visual identification of biological sex at the time of delivery in the absence of an ultrasound unit in the lamb intensive care unit. The inventors tracked sex as a biological variable, but the study could not assess differences in outcomes based on sex because of small sample sizes.

[2] = system: preterm lamb model of BPD; assay: Respiratory system mechanics (ventilator, forced oscillation technique, methacholine challenge); assay type: in vivo
Method: Respiratory system mechanics assessments with methacholine challenge. The respiratory system mechanics were assessed for the early-stage study (DOL1-10) and late-stage study (DOL10-90). For the early-stage research, the Drager ventilator recorded respiratory system mechanics every 5 min while the PT lambs were intubated and mechanically ventilated. The parameters were dynamic lung compliance and resistance. The inventors averaged the parameters every 12 h.
For the early and late-stage studies, after the lambs were extubated and transitioned to noninvasive respiratory support and spontaneously breathing (DOL7-10) and thereafter to DOL90, the inventors used forced oscillometry (FOT; model Tremoflo N-100; Thorasys, Thoracic Medical Systems Inc., Montreal, QC, Canada), with a filter (Humid-Vent Filter Small A, Teleflex Medical, Ireland). This instrument, validated in term and PT human infants,^18 allows the measurement of respiratory system mechanics in uncooperative subjects (not intubated and breathing spontaneously) by applying a pressure stimulus at the airway opening and measuring the resulting flow. The inventors used a small canine mask (product number 93815026; Midmark Corp., Versailles, OH). The FOT device was calibrated daily, and the use followed the manufacturer's instructions. The inventors used the standard TremoFlo-supplied software without modifications. The software enables post hoc inspection of the measurement time course. As recommended by the manufacturer, any measurement with a leak was discarded. FOT measurements were made for the FPT lambs at 1 month corrected postnatal age (1 moC; DOL60) and 2 moC (DOL90). The comparison time points for term reference lambs were matched for corrected postnatal age.
FOT analysis was done on lambs that stood prone, supported by a veterinary sling. The lambs were given Lorazepam (0.1 mg/Kg, intramuscularly) to keep them calm. The mask was placed over their muzzle and held in place by a tender. The lambs were habituated to the sling and mask before testing was done. FOT was used to measure respiratory system resistance and reactance in four steps: (1) baseline, (2) bronchodilator (albuterol), (3) bronchoconstrictor (methacholine challenge), and (4) bronchodilator (albuterol). The inventors used an Aeroneb Pro nebulizer (Aerogen Ltd, Galway, Ireland) connected to the mask. The inventors repeatedly measured tissue O2 saturation by pulse oximetry, heart rate, and blood pressure. After the baseline measurement, the inventors nebulized albuterol (1.5 mL; Hi-Tech Pharmacal Co., Amityville, NY) to dilate the airways in each lamb before methacholine challenge. Airway responsiveness was assessed during stepwise increases in nebulized methacholine (Provocholine; Pancap, Inc., Markham, Ontario, Canada), according to the ATS 1999 guideline^19 and reported by the inventors for FPT and term reference lambs.^14 Methacholine concentration was doubled for each step, starting from 0.06 mg/mL up to a maximum concentration of 4.00 mg/mL. At the end of the methacholine challenge steps, 1.5 mL of albuterol was nebulized to dilate the airways. All lambs tolerated the procedure, which took 45-60 min.

[3] = Clinical biochemistry and physiological parameters of treated lambs; assay type: in vivo, lamb
Method: Arterial blood and free-fall urine samples were collected every 24 h and analyzed for indicators of liver and kidney function (Associated Regional and University Pathologists (ARUP) Laboratories, Salt Lake City).
Clinical biochemistry. Plasma and urine samples were analyzed by Associated Regional and University Pathologists (ARUP) at the University of Utah. Plasma renal function parameters are urea nitrogen and creatinine. Plasma hepatic function parameters are alkaline phosphatase, aspartate aminotransferase, alanine aminotransferase, total protein, albumin, bilirubin total, and direct bilirubin.
Physiological parameters for lambs in the early and late-stage studies. Physiology results were obtained including cardiovascular physiology, temperature, respiratory rates, indices for oxygenation, ventilation indices, plasma pH, bicarbonate, base excess, plasma electrolytes, plasma glucose, hematocrit (Hct), total serum protein (Tsp), lactate, enteral feeding, milk residual, and hematology for early and late-stage studies.

[4] = early-stage study DOL 1-7, vs vehicle
[5] = early-stage study, PT lambs, 3.0 mg/kg, vs vehicle
[6] = FOT, d90, FPT lambs vs FPT vehicle
[7] = ventilator-measured, invasive mechanical ventilation DOL1-7, PT lambs vs vehicle

## CC(=O)NC1C(Oc2ccc([N+](=O)[O-])cc2)OC(CO)C(O)C1O (stereo not drawn) [AVR-48]
[1]; 10d period, dose escalation 0.1-9.0 mg/kg/dose
  BPD-like symptoms: diminished in a dose-related manner
[1]; early-stage pilot, PT lambs, 1.0 mg/kg iv every 12 h
  respiratory severity score (RSS): improved moderately
[1]; [4]
  FiO2 and PaO2: No statistical difference
  PIP and PaCO2: No statistical difference
[1]; early-stage study, PT lambs, 3.0 mg/kg iv every 12 h, vs vehicle, 3 mg/kg
  respiratory severity score (RSS): Significant improvements; also recorded: significantly improved
[1]; [5]
  Alveolar-arterial (A-a) gradient: significantly improved
  SpO2/FiO2 (SF) ratio: significantly improved
  oxygenation index: significantly improved
[2]; FOT, DOL 60, late-stage study
  resistance and reactance of the respiratory system: No significant difference
[2]; [6]
  baseline reactance at 5 and 10 Hz (upper and large airways): significantly less negative
  baseline resistance at 5 Hz (upper and large airways): significantly lower
  reactance at 5 and 10 Hz after methacholine challenge: significantly less negative
  reactance at 7-20 Hz after albuterol nebulization: less negative reactance
  resistance at 5 Hz after methacholine challenge: significantly lower resistance
  resistance at 7-20 Hz after albuterol nebulization: significantly lower resistance
[2]; FOT, end of early-stage study (DOL10), PT lambs 3.0 mg/kg vs vehicle
  respiratory system resistance in large (5 Hz), middle (7-20 Hz), and small (41 Hz) airways: significantly lower resistance
[2]; FOT, end of early-stage study (DOL10), PT lambs vs vehicle
  airway reactance AX (area under the curve below zero): significantly lower
[2]; [7]
  dynamic lung compliance: No statistically significant differences; also recorded: consistently lower
  lung resistance: No statistically significant differences
[3]; AVR-48 treated lambs
  clinical parameters (plasma renal and hepatic function): within the normal range
[3]; early and late-stage studies
  physiological outcomes (cardiovascular, temperature, respiratory rates, plasma chemistry, feeding, hematology): no adverse effect
[3]; [4]
  Hematology: No statistical difference
  plasma glucose, Hct, Tsp, and lactate: No statistical difference
  plasma pH, bicarbonate, and BE: No statistical difference
  temperature or respiratory rate: No statistical difference
[3]; early-stage study, DOL 6, vs vehicle, not observed on any other days
  systolic blood pressure: higher systolic blood pressure
[3]; in vivo
  volume of tolerable enteral feeding and residual in the stomach: No statistical difference
